Values quoted from earlier work, collected in patent US20260334526A1 (NICOVENTURES TRADING LIMITED, priority 2022, published 2026).

Assays:
[1] = nicotine solution at pH=6 relative to pH 8.1; perfusion cell; Adrian et al.
[2] = for solubility: fats, alcohols, water

| Structure (SMILES) | reduction of diffusion rate across human buccal tissue (factor) [1] | solubility [2] | chemical stability ([2]; when isolated) |
| --- | --- | --- | --- |
| CN1CCCC1c1cccnc1 (stereo not shown) [nicotine] | ~ 7 |  |  |
| CC(/C=C/C=C(C)/C=C/C(=O)O)=C\C=C\C=C(C)\C=C\C=C(C)\C=C\C(=O)O (stereo in doubt) [norbixin, (2E,4E,6E,8E,10E,12E,14E,16E,18E)-4,8,13,17-tetramethylicosa-2,4,6,8,10,12,14,16,18-nonaenedioic acid] |  | water-soluble |  |
| COC(=O)/C=C/C(C)=C\C=C\C(C)=C\C=C\C=C(C)\C=C\C=C(C)\C=C\C(=O)O [bixin, (2E,4E,6E,8E,10E,12E,14E,16Z,18E)-20-methoxy-4,8,13,17-tetramethyl-20-oxoicosa-2,4,6,8,10,12,14,16,18-nonaenoic acid] |  | soluble in fats and alcohols but insoluble in water | chemically unstable when isolated |
